Assays:
[1] = test system: patient-derived AML cells; assay: Patient-derived AML xenograft in NSG mice, epacadostat chow and/or Ara-C; format: in vivo, mouse; settings: day 22 after initiating therapy; Ara-C 60 mg/kg/day x 5 days, epacadostat chow 1.6 g/kg 3 weeks
Experimental: (§1) Epacadostat (AdooQ Cat #A15554)-treatment: for the WT C57BL/6J mice, treatment started at the same time than MLL/AF9 cells were transplanted. For the patient-derived AML cells (PDX) transplanted into NSG mice, treatment started 8 weeks after transplant, at the same time than Ara-C and during 3 weeks. Mice were supplied with ad libitum epacadostat-supplemented diet (Research Diets Inc.) at 800 mg/kg (low-dose) or 1.6 g/kg (high-dose). For the PDX transplanted into NSGS mice, treatment started 3 weeks after transplant, by daily gavage at 300 mg/kg (InvivoChem Cat #: V0942, dissolved in 10% DMSO, 40% PEG 300 and 50% NaCl 0.9%) for 2 weeks.
For the combination therapy (Epacadostat+chemotherapy) performed at the University of Pennsylvania, patient-derived AML cells were transplanted as previously reported (48). Briefly 6 weeks old NSG males were sublethally treated with busulfan (30 mg/kg) 24 h before transplant and 5×10^6 patient-derived AML cells were injected i.v. Engraftment was assessed, and mice were randomized at 7.5 weeks by BM aspirate as previously described. Randomized mice were treated with vehicle, cytosine arabinoside (Ara-C, 60 mg/kg/day×5 days i.p.), epacadostat chow (1.6 g/kg ad libitum) or both Ara-C and epacadostat chow for 3 weeks.

IDO1 = assay: CRISPR/Cas9 Ido1 editing of primary murine MLL/AF9 cells; format: cell-based, mouse; settings: for deletion efficiency: Ido1 exon 3, MLL/AF9 cells
Experimental: (§2) The chemically modified sgRNAs targeting IDO1 were obtained and designed with at least 3 mismatches to decrease possible off target effects with the Synthego CRISPR design tool or the CRISPOR. […] In addition, lack of random effects due to TP53 activation, was shown by p16 and p21 mRNA level assessment in Cas9-only controls as well as in all the sgRNAs used. For 10^6 cells, 3 μg of TrueCut Cas9 protein V2 (Invitrogen) and 1.5 μg sgRNA were mixed in either SE (immortalized cell lines WEHI-3B and OCI-AML3) or P3 (primary mouse MLL/AF9 or patient-derived AML cells) buffer (Lonza, Amaxa X-Nucleofector Kit) and incubated 10 mins. Cells were then resuspended in their respective nucleofection buffer, mixed with the Cas9/sgRNA RNP complex or the Cas9 only as control, and electroporated with the Lonza 4D-Nucleofector (program DZ100, CM137 or DI100). After electroporation, cells were cultured in their respective media at 37° C. until sequencing analysis and/or injection. The editing efficiency data, indel contribution and Sanger sequence analyses were performed with the Synthego Performance Analysis, ICE Analysis. 2019. v2.0. (Synthego).

MLL/AF9 cells = assay: Transplant of Ido1-edited MLL/AF9 cells into WT non-irradiated recipients; format: in vivo, mouse; settings: for disease progression: exon-3-edited MLL/AF9 cells versus Cas9-only
MLL/AF9 AML cells = assay: MLL/AF9 syngeneic leukemia model in non-irradiated WT mice; format: in vivo, mouse
Experimental: PTH bone-anabolic treatment: mice were injected intraperitoneally (i.p.) with PTH (Bachem) at 80 μg/kg/day in PBS. Injections started 1 week before MLL/AF9 injection and continued along 2-3 more weeks until mice were harvest.
SB224289-SB9-(TOCRIS Cat #1221) treatment: mice were injected intraperitoneally (i.p.) daily with SB9 (5 mg/kg in 0.9% NaCl) 1 week after leukemia injection and for the duration of the experiment. Assuming a 20 g body weight (BW) and a 2 ml total blood volume per mouse—as well as an even distribution of the drug-systemic concentration of SB9 should be approximately 50 μg/ml. Based on the MW of SB9 (557.09), the final concentration—at equal distribution—in blood should be 8.97521e-05 M (≈90 μM).
as §1
(§3) All leukemia models were introduced by intravenous (i.v.) injection and transplanted into non-irradiated secondary recipient experimental animals. BALB/c mice were used for the WEHI-3B leukemia model (0.5×10^6/cells/mouse) and C57BL/6J mice for MLL/AF9-dsRed (0.2×10^6/cells/mouse). Leukemia progression was assessed by fluorescence (MLL/AF9 dsRed) using the IVIS-Spectrum Optical Imaging System (Caliper, Perkin Elmer). Mice were shaved to reduce light attenuation.

[2] = test system: serotonin-HTR1B signaling; assay: Gene expression in bone of treated mice (targets of serotonin-HTR1B signaling); format: in vivo, mouse; settings: for expression of Cyclins D1, D2 and E1 in bone: treated versus vehicle-treated mice
Experimental: (§4) RNA isolation, cDNA preparation and real-time PCR analyses were carried out following standard protocols. Total RNA from cortical bone (clean, flushed femurs, were centrifugated 20 seconds at 10.000 g's to remove any remaining BM) was extracted using TRIzol (Invitrogen) followed by RNA clean-up using PureLink RNA Mini Kit (Ambion, Invitrogen). mRNA was reversed transcribed using random hexamers RNA-to-cDNA kit (Takara). Specific forward and reverse primers were used in conjunction with PowerUp SYBR Green Master Mix (Applied Biosystems) for quantitative PCR. Expression levels were analyzed using the 2^−ΔΔCt method and were normalized for the expression of the housekeeping gene Hprt unless otherwise stated.

mouse HTR1B = target: T1, mouse HTR1B (Mus musculus, UniProt P28334); assay: [3H]-5-HT competition binding, membranes of HEK293T cells overexpressing murine HTR1B; settings: competition of 25 nM [3H]-5-HT; for Log IC50: log value
T1 construct: The full-length murine or human serotonin receptor 1b (Htr1b); Myc-DDK; host or cells: HEK293T (transient, Lipofectamine LTX); isolated membranes
Experimental: (§5) Radioactivity captured on the filters was counted using a SL300 scintillation counter (Hidex). […] Log EC50 were determined by Non-linear regression curve analysis.

murine HTR1B receptor = target: T2, murine HTR1B receptor (Mus musculus, UniProt P28334); assay: [3H]-Kyn binding to Htr1b-overexpressing HEK293T membranes with increasing SB9
T2 construct: The full-length murine or human serotonin receptor 1b (Htr1b); Myc-DDK; host or cells: HEK293T (transient, Lipofectamine LTX); isolated membranes
Experimental: as §5

WEHI-3B = assay: Transplant of Ido1-edited WEHI-3B cells into mice; format: in vivo, mouse; settings: edited WEHI-3B cells versus Cas9-only
Experimental: as §3
as §2, with “After electroporation, cells were cultured in their respective media at 37° C. until sequencing analysis and/or injection. The editing efficiency data, indel contribution and Sanger sequence analyses were performed with the Synthego Performance Analysis, ICE Analysis. 2019. v2.0. (Synthego).” left out

5-HT1B receptor = target: T3, 5-HT1B receptor (Homo sapiens, UniProt P28222); assay: GloSensor Gi/o-mediated cAMP inhibition assay in HEK293T cells; format: cell-based
T3 construct: expressed in transfected cells; host or cells: HEK293T (transient co-transfection with GloSensor cAMP plasmid)

[3] = test system: leukemic blasts (hCD45+hCD33+); assay: Kyn injection in low AML burden PDX mice; format: in vivo, mouse; settings: Kyn 20 mg/kg, 1 week
Experimental: 4-6 weeks old NSG (CDX model) or NSGS (PDX model) mice were pre-conditioned with sublethal (1.4 Gy) total-body irradiation. 24 h after, 1×10^6 OCI-AML3 or 2×10^5 human BM CD34^+ (healthy) or primary AML patient samples were injected i.v. Engraftment levels were monitored and mice were randomized after BM aspiration 3-4 weeks later and immunophenotyped by the presence of mCD45 (BioLegend Cat #103133, RRID: AB_10899570), hCD45 (BioLegend Cat #368512, RRID: AB_2566372), hCD33 (BioLegend Cat #303404, RRID: AB_314348), hCD34 (BioLegend Cat #343518, RRID: AB_1937203) cell populations. For the low-burden PDX model (kynurenine injections), mice were treated 1 week after transplant.
Quantification in serum from peripheral blood (mice) or BM plasma (patients) of Kyn and Trp was assessed by ELISA using independent kits (ImmunoSmol) as per manufacturer's instructions. The ratio between Kyn and Trp levels is shown. SAA3 in serum (murine SAA3 ELISA Kit Millipore) and SAA1 in patient BM plasma (Amyloid A1 DuoSet ELISA Kit (R&D) were assessed as per manufacturer's instructions.
Cell labelling was done by i.p. injection of mice with 50 mg/kg of freshly prepared 5-Ethynyl-2′-deoxyuridine-Edu-(Cayman Chemical Company Cat #20518). After 3-4 h, BM was harvested, and human cells were negatively selected by mouse cell depletion using mouse CD45 magnetic beads (Miltenyi). The human BM cells were then stained CD45 and CD33 to identify the leukemic blast. Cell cycle/proliferation analysis was performed using the Click-iT Plus EdU Flow Cytometry Assay Kit (Invitrogen, Cat #C10420) following manufacturers' instructions. Fixable viability dye (Biolegend) was used to discriminate the death population. Single color controls were used to set compensations and fluorescence minus one control were used to set gates. Analysis was performed with FlowJo software.

HTR1B = assay: Saa3 mRNA in primary mouse calvaria osteoblasts from Htr1b+/+ or Htr1b-/- mice; format: cell-based; settings: 25 nM, 24 h; for Saa3 expression in mouse osteoblasts: Htr1b+/+ osteoblasts
Experimental: Primary calvaria-derived osteoblasts were prepared from calvaria of 2-3 day-old newborns as previously described (Rached M-T, et al. FoxO1 Is a Positive Regulator of Bone Formation by Favoring Protein Synthesis and Resistance to Oxidative Stress in Osteoblasts. Cell Metabolism. Elsevier Ltd; 2010; 11:147-60.). Briefly, mice calvaria were sequentially digested for 20, 40, and 90 min at 37° C. in alpha-MEM (Gibco) 10% FBS containing 0.1 mg/ml of collagenase P (Worthington) and 0.25% trypsin (Gibco). Cells of the first two digests were discarded, whereas cells released from the third digestion were plated and differentiated for 7-10 days as previously described.
as §4

human HTR1B [4] = target: T4, human HTR1B (Homo sapiens, UniProt P28222); settings: competition of 25 nM [3H]-5-HT
Experimental: The full-length murine or human serotonin receptor 1b (Htr1b) (pCMV6-Entry vector, Myc-DDK-tagged, Origene, Cat #MR222524 and RC223874 respectively) were transiently transfected into HEK293T cells using Lipofectamine LTX (Invitrogen). Transfection efficiency was assessed 24 h post-transfection by flow cytometry using the anti-Flag antibody (Sigma-Aldrich Cat #F3165, RRID: AB_259529). […] Reactions were stopped by the addition of ice-cold PBS, filtered through 0.7 μm glass fiber filters (Data Support Company). Filters were dried and melted with scintillation cocktail. Radioactivity captured on the filters was counted using a SL300 scintillation counter (Hidex). […] Log EC50 were determined by Non-linear regression curve analysis.

human HTR1B [5] = target: T4, human HTR1B; assay: [3H]-GR125743 competitive radioligand binding, HTR1B membranes from HEK293T stable transfectants; settings: [3H]-GR125743, human HTR1B
Experimental: [^3H]-GR125743 (PerkinElmer) radioligand binding assays were performed in standard binding buffer (50 mM Tris, 10 mM MgCl2, 0.1 mM EDTA, 0.1% BSA, 0.01% ascorbic acid, pH 7.4). Competitive binding was assessed with various concentrations of test compounds (0.3 nM to 100 μM), [^3H]-GR125743 (1.38 nM), and HTR1B membranes (isolated from HEK293T stable transfectants) in a total volume of 150 μL. Assay plates were incubated in the dark for 1 h at RT and reactions were stopped by filtration onto 0.3% polyethyleneimine pre-soaked 96-well Filtermat A (PerkinElmer), followed with three quick washes with cold wash buffer (50 mM Tris, pH 7.4). Filters were dried and melted with scintillation cocktail (Meltilex, PerkinElmer). Radioactivity was counted using a Wallac TriLux Microbeta counter (PerkinElmer).

T1 sequence (P28334 whole entry): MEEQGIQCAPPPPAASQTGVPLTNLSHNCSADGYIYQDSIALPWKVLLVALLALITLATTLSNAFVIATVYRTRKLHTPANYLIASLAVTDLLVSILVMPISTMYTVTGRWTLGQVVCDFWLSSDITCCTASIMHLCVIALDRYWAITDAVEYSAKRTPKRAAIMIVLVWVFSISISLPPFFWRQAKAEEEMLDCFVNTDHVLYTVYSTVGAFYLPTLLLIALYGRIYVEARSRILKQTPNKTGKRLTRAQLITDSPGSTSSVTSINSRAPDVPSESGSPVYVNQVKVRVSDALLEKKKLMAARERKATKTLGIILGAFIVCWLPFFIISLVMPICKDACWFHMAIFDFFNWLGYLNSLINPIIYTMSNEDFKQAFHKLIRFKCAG
T4 sequence (P28222 whole entry): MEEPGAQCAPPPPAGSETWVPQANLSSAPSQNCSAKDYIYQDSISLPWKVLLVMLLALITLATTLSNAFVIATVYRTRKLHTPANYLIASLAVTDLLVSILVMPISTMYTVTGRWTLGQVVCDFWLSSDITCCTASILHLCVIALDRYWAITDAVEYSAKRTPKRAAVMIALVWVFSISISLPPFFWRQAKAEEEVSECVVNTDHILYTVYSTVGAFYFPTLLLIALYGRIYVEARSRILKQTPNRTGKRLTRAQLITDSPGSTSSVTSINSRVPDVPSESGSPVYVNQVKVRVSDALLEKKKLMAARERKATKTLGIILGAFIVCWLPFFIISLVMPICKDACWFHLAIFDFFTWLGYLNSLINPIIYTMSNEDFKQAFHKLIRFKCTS
T3 sequence (P28222 whole entry): as above
T2 sequence (P28334 whole entry): as the sequence (P28334 whole entry) above

Nc1ccn([C@@H]2O[C@H](CO)[C@@H](O)[C@@H]2O)c(=O)n1 [Ara-C, cytosine arabinoside]
leukemic burden in BM [1]: modest decrease in overall leukemic burden
leukemic burden in spleen [1]: more sustained in the spleen than in BM

sgRNA #610: mouse sgRNA targeting Ido1 exon 4: UAGGGAACAGCAAUAUUGCG GGG (guide UAGGGAACAGCAAUAUUGCGGGG; listed as RNA, chemistry not fully specified)
MLL/AF9 cells efficiently targeted (IDO1; Ido1 exon 4): ~70%
loss of expression of Ido1 at the mRNA level (IDO1; Ido1 exon 4, MLL/AF9 cells): 70%
mice with complete protection against leukemia progression that survived (MLL/AF9 cells; exon-4-edited MLL/AF9 cells): 36%
survival (MLL/AF9 cells; exon-4-edited MLL/AF9 cells versus Cas9-only): significant increase in survival

Cc1nc(-c2ccc(-c3ccc(C(=O)N4CCc5cc6c(cc54)C4(CCN(C)CC4)CO6)cc3)c(C)c2)no1 [SB224289, 1′-methyl-5-[[2′-methyl-4“-(5-methyl-1,2,4-oxadiazol-3-yl)biphenyl-4-yl]carbonyl]-2,3,6,7-tetrahydro-spiro[furo[2,3-f]indole-3,4-”piperidine]]
survival (MLL/AF9 AML cells; SB9 5 mg/kg i.p. daily versus vehicle): significant increase in survival
expression of Col1a1 in bone ([2]; control osteoblast-specific gene): not affected
expression of Cyclins D1, D2 and E1 in bone [2]: upregulated
IC50 (mouse HTR1B): 1.27 µM
Log IC50 (mouse HTR1B): −5.896 M
effect on Kyn binding to the murine HTR1B receptor (murine HTR1B receptor; at ~90 μM, concentration equal to the one administered in vivo): no effect
IC50 (murine HTR1B receptor; competition of [3H]-Kyn (50 μM), mouse HTR1B): 7720 µM

sgRNA #203: mouse sgRNA targeting Ido1 exon 3: CAGUCCGUCCGUGCUCAGUG TGG (guide CAGUCCGUCCGUGCUCAGUGTGG; modified_base 21 OTHER; thymine)
deletion efficiency (IDO1): ~40%
disease progression (MLL/AF9 cells): significantly attenuated

sgRNA #146: mouse sgRNA targeting Ido1 exon 3: CGCCAUGGUGAUGUACCCCA GGG (guide CGCCAUGGUGAUGUACCCCAGGG; listed as RNA, chemistry not fully specified)
deletion efficiency (IDO1): ~56%
survival (WEHI-3B): significant increased survivals
disease progression (MLL/AF9 cells): abrogated

Nc1ccccc1C(=O)CC(N)C(=O)O (stereo not drawn) [Kyn, kynurenine]
mode of action on Gi/o-mediated cAMP production through HTR1B (5-HT1B receptor): partial agonist
EC50 (5-HT1B receptor; cAMP Gi agonist, human HTR1B): 0.772 µM
Log EC50 (5-HT1B receptor; log value, cAMP Gi agonist, human HTR1B): −6.113 M
AML burden in BM and SP [3]: increased
proliferative capacity of the leukemic blasts [3]: increases
serum SAA3 [3]: increases
IC50 (mouse HTR1B): 54.1 µM
Log IC50 (mouse HTR1B): −4.267 M
Saa3 expression in Htr1b-/- primary osteoblasts (HTR1B): failed to upregulate
Saa3 expression in mouse osteoblasts (HTR1B): potently upregulated
IC50 (human HTR1B [4]): 24.4 µM
Log IC50 (human HTR1B [4]; log value): −4.612 M
Ki (human HTR1B [5]): 17.3 µM
Log Ki (human HTR1B [5]; log value): −4.762 M

NCCc1c[nH]c2ccc(O)cc12 [5-HT, 5-hydroxytryptamine]
IC50 (mouse HTR1B): 0.0811 µM
Log IC50 (mouse HTR1B): −7.091 M
Saa3 expression in mouse osteoblasts (HTR1B): no effect

sgRNA #196: mouse sgRNA targeting Ido1 exon 3: CUGCCCACACUGAGCACGGA CGG (guide CUGCCCACACUGAGCACGGACGG; listed as RNA, chemistry not fully specified)
deletion efficiency (IDO1): ~40%
disease progression (MLL/AF9 cells): significantly attenuated

B1: parathyroid hormone (peptide, UniProt P01270 32-115, looked up)
Parathyroid hormone: SVSEIQLMHNLGKHLNSMERVEWLRKKLQDVHNFVALGAPLAPRDAGSQRPRKKEDNVLVESHEKSLGEADKADVNVLTKAKSQ
modifications: Parathyroid hormone
notes: intermittent parathyroid hormone (Bachem), increases osteoblast numbers
leukemia growth, disease progression and lifespan (MLL/AF9 AML cells; PTH 80 μg/kg/day i.p. versus vehicle): failed to curtail leukemia growth
expression of Cyclins D1, D2 and E1 in bone [2]: did not change

— patent US20240350669A1, “INHIBITION OF KYNURENINE SYNTHESIS AND/OR SIGNALING TO TREAT LEUKEMIA AND MYELODYSPLASIA” (THE TRUSTEES OF COLUMBIA UNIVERSITY IN THE CITY OF NEW YORK, priority 2022, published 2024)
